Measured values published in ChEMBL document CHEMBL4371002 (J Med Chem, 2018).
In brackets after ≈: the same amount, converted by molar mass.

Biological target: Procathepsin L (Homo sapiens, UniProt P07711)
Assay: not given
Settings: not given

Sequence of Procathepsin L (P07711 whole entry): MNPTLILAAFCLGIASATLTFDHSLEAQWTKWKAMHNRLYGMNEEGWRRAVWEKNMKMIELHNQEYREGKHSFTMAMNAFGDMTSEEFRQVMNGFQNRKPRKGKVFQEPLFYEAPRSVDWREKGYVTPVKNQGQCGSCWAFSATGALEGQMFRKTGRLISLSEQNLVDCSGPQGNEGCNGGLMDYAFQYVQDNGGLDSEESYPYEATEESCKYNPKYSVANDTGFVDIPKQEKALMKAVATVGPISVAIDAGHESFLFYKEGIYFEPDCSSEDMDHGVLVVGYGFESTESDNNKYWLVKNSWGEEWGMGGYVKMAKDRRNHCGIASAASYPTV

SMILES	Ki [nM]
N#Cc1nc(N2CCOCC2)nc(N(Cc2cccc(F)c2)C2CCCC2)n1	200
N#Cc1nc(N2CCOCC2)nc(N(Cc2ccc(F)cc2F)C2CCCC2)n1	126
N#Cc1nc(N2CCOCC2)nc(N(Cc2cccnc2)C2CCCC2)n1	100
N#Cc1nc(N2CCOCC2)nc(N(Cc2ccncn2)C2CCCC2)n1	251
N#Cc1nc(N2CCOCC2)nc(N(Cc2ccncc2)C2CCCC2)n1	158
N#Cc1nc(N2CCOCC2)nc(N(Cc2ccc(F)cc2)C2CCCC2)n1	501
N#Cc1nc(N2CCOCC2)nc(N(Cc2c(F)cccc2F)C2CCCC2)n1	100
N#Cc1nc(N2CCOCC2)nc(N(Cc2cnccn2)C2CCCC2)n1	158
N#Cc1nc(N2CCOCC2)nc(N(Cc2cc(F)ccc2F)C2CCCC2)n1	251
N#Cc1nc(N2CCOCC2)nc(N(Cc2ncccn2)C2CCCC2)n1	398

Biological target: Prothrombin (Homo sapiens, UniProt P00734)
Assay: not given
Settings: not given

SMILES	Ki [nM]
N=C(N)c1ccc([C@H]2[C@H]3C(=O)N(Cc4cccc(F)c4F)C(=O)[C@H]3[C@@H]3CCCN32)cc1	490
N=C(N)c1ccc([C@H]2[C@H]3C(=O)N(Cc4ccc(Cl)cc4)C(=O)[C@H]3[C@@H]3CCCN32)cc1	190
N=C(N)c1ccc([C@H]2[C@H]3C(=O)N(Cc4ccc(F)cc4F)C(=O)[C@H]3[C@@H]3CCCN32)cc1	260
N=C(N)c1ccc([C@H]2[C@H]3C(=O)N(Cc4cccc(F)c4)C(=O)[C@H]3[C@@H]3CCCN32)cc1	360
N=C(N)c1ccc([C@H]2[C@H]3C(=O)N(Cc4ccccc4F)C(=O)[C@H]3[C@@H]3CCCN32)cc1	500

System: Plasmodium berghei
Assay: microbe, parasite or virus in culture
Assay type: functional, organism-based
Settings: not given

SMILES	IC50 [nM]	IC90 [nM]
C[C@@H]1CC[C@H]2[C@@H](C)C(=C(F)F)O[C@@H]3O[C@@]4(C)CC[C@@H]1[C@]32OO4	20	–
CC1=C(C(F)(F)F)O[C@@H]2O[C@@]3(C)CC[C@H]4[C@H](C)CC[C@@H]1[C@@]24OO3	4.6	7.3
C[C@@H]1CC[C@H]2[C@@H](C)C(=O)O[C@@H]3O[C@@]4(C)CC[C@@H]1[C@]32OO4 [ARTEMISININ]	8.9	14.5

Biological target: Bacterial 70S ribosome
Assay: not given
Assay type: subcellular, Bacteria
Settings: not given

SMILES	IC50 [nM]
CC1=C\[C@@H](O)C[C@H](O)Cc2nc(co2)C(=O)N2CCC[C@@H]2C(=O)O[C@H](C(C)C)[C@H](C)/C=C/C(=O)NC\C=C\1	6000
CC1=C\[C@@H](O)C[C@@H](F)Cc2nc(co2)C(=O)N2CCC[C@@H]2C(=O)O[C@H](C(C)C)[C@H](C)/C=C/C(=O)NC\C=C\1	60
CC1=C\[C@@H](O)C[C@@H](O)Cc2nc(co2)C(=O)N2CCC[C@@H]2C(=O)O[C@H](C(C)C)[C@H](C)/C=C/C(=O)NC\C=C\1	50

System: Staphylococcus hominis
Assay: microbe, parasite or virus in culture
Assay type: functional
Settings: IP8203

SMILES	MIC [µg/mL]
CC1=C\[C@@H](O)C[C@H](O)Cc2nc(co2)C(=O)N2CCC[C@@H]2C(=O)O[C@H](C(C)C)[C@H](C)/C=C/C(=O)NC\C=C\1	32 (≈ 60.4 µM)
CC1=C\[C@@H](O)C[C@@H](F)Cc2nc(co2)C(=O)N2CCC[C@@H]2C(=O)O[C@H](C(C)C)[C@H](C)/C=C/C(=O)NC\C=C\1	0.25 (≈ 0.47 µM)
CC1=C\[C@@H](O)C[C@@H](O)Cc2nc(co2)C(=O)N2CCC[C@@H]2C(=O)O[C@H](C(C)C)[C@H](C)/C=C/C(=O)NC\C=C\1	1 (≈ 1.89 µM)

Biological target: T1, 5-hydroxytryptamine receptor 1A (Homo sapiens, UniProt P08908)
T1 sequence (P08908 whole entry): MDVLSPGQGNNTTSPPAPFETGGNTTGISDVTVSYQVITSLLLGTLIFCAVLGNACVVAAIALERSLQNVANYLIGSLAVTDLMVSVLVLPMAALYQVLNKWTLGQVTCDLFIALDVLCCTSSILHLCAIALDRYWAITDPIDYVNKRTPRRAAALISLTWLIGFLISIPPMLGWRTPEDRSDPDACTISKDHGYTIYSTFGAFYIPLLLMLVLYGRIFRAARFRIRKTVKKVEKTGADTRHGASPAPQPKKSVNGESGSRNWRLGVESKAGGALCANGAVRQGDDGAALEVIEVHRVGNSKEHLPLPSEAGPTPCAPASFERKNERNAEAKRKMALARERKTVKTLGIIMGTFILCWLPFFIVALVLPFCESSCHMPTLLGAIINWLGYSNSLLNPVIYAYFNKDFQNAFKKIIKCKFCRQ
Assay: not given
Assay type: functional, cell-based, CHO
Settings: not given

SMILES	IC50 [nM]
N#Cc1ccc2[nH]cc(CCCCN3CCN(c4ccc5c(c4)OCO5)CC3)c2c1	0.7
Fc1ccc2[nH]cc(CCCCN3CCN(c4ccc5c(c4)OCO5)CC3)c2c1	4
c1ccc2c(CCCCN3CCN(c4ccc5c(c4)OCCO5)CC3)c[nH]c2c1	8
N#Cc1ccc2[nH]cc(CCCCN3CCN(c4ccc5c(c4)OCCO5)CC3)c2c1	1
Clc1ccc2[nH]cc(CCCCN3CCN(c4ccc5c(c4)OCCO5)CC3)c2c1	40
NC(=O)c1cc2cc(N3CCN(CCCCc4c[nH]c5ccc(F)cc45)CC3)ccc2o1	3
Fc1ccc2[nH]cc(CCCCN3CCN(c4ccc5c(c4)OCCO5)CC3)c2c1	5

Biological target: D(2) dopamine receptor (Homo sapiens) (UniProt P14416)
Sequence (P14416 whole entry): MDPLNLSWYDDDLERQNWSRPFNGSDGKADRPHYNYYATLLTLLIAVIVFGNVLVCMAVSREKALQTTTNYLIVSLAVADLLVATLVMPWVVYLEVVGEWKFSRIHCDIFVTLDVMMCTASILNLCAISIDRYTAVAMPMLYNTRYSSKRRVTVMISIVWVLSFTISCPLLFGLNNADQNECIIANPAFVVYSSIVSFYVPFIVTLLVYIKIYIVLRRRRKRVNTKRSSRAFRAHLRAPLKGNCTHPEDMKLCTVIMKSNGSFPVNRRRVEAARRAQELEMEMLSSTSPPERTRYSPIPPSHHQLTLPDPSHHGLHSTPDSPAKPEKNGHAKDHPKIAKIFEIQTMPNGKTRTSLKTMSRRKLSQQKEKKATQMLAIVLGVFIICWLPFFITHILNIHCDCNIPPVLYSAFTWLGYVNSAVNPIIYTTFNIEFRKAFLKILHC
Assay: not given
Settings: not given

KiH [nM]	SMILES
0.18	FC(F)(F)c1nc2c(OCCNCc3ccccc3)cccc2[nH]1
0.14	Oc1nc2c3c(ccc2[nH]1)CCC(CNCc1ccccc1)O3 (configuration not stated)
0.37	O=C1Cc2c(ccc3c2OC(CNCc2ccccc2)CC3)N1 (configuration not stated)
5.75	FC(F)(F)c1nc2c3c(ccc2[nH]1)CCC(CNCc1ccccc1)O3 (configuration not stated)
4.4	Cc1nc2c(OCCNCc3ccccc3)cccc2[nH]1
0.18	Oc1nc2c(OCCNCc3ccccc3)cccc2[nH]1
9.8	c1ccc(CNCCOc2cccc3[nH]cnc23)cc1

System: not listed separately
Assay: physchem
Settings: not given

pKa	SMILES
7.12	NCc1cc(F)c(O)c(F)c1
9.81	NCc1ccc(F)c(O)c1F
